From patent US11890315B2, “Stable ascorbic acid compositions and methods of using same” (RENOVION, INC., priority 2017, dated 2024)

What was measured:
[1] = Stability: oxidized glutathione and reduced ascorbic acid after 4 weeks of storage at 5° C.; assay type: physicochemical; conditions: reduced ascorbic acid maintained after 4 weeks at 5° C.; pH and atmosphere per formulation
Description: Oxidized glutathione is associated with the generation of protein-carbonyls via glutathionlyation, which occurs when oxidized glutathione dissociates and attaches to proteins. […] Additionally, when ascorbic acid is oxidized into dehydroascorbate (DHA), DHA can break down and result in the formation of protein adducts in process called ascorbylation (Simpson et al., Biochim biophys Acta 2000; 1501:12-24). […] Specifically, nitrogen-sparged samples were mixed under anaerobic conditions sparged with nitrogen, and the samples were packaged using nitrogen bubbling. Ambient samples were mixed under room air conditions and were not bubbled with nitrogen. The formulations were stored at 5° C. for 4 weeks, and the percent of oxidized glutathione (GSSG) and ascorbic acid (ASC) was measured for each sample according to standard techniques.

[2] = Storage stability about 72 hours at 2-8° C.; assay type: physicochemical; conditions: −20° C., 5° C., ambient; data not shown
Method: The effects of storage on ascorbic acid compositions including varying amounts of buffer with a consistent glutathione concentration were tested. […] At testing, Formulations 1-9 were evaluated to determine ascorbic acid and reduced and oxidized glutathione concentrations. A standard RP-HPLC method for these analytes was used. The method was validated including specificity, accuracy, repeatability, LOQ, mini linearity, in-vial NPLC sample stability and stability-indicating check with informal forced degradation samples. The pH of each formulation was determined using a pH probe place in a sample of each solution. Results are shown in FIG. 15. ascorbic (ACS) alone was unstable under the conditions tested (−20° C., 5° C., ambient) (data not shown).

[3] = system: dF508−/− primary human bronchial epithelial cells; experiment: Mucociliary transport rate, ASL and CBF by micro-optical coherence tomography (uOCT); assay type: cell-based; conditions: isolated components vs PBS control; FIG. 2
Description: Briefly, primary human bronchial epithelial cells were isolated from the airways of patients with cystic fibrosis and were terminally differentiated. All cells isolated from cystic fibrosis patients were represented by the dF508−/− genotype. […] Micro-optical coherence tomography (uOCT) was used to assess the mucociliary transport rate according to methods described in Liu, L., et al., PLoS One.
As described above in Example 2, primary human bronchial epithelial cells were isolated from the airways of patients with cystic fibrosis, and uOCT was used to assess the mucociliary transport rate according to methods described in Liu, L., et al., PLoS One.
MCT rate was assessed in a mucociliary clearance assay according to the methods in Example 3 above.

Pa BAA-47 (PAO1) = experiment: In vitro MIC against bacterial isolates; assay type: cell-based, Pseudomonas aeruginosa; conditions: Anaerobic (+nitrate); 12 hrs
Method: (§1) The MIC for laboratory clinical isolate Pseudomonas aeruginosa (Schroeter) Migula (ATCC BAA-47 (PAO1)) was also tested. The MICs were determined under anaerobic conditions on media supplemented with nitrate, under aerobic conditions supplemented with nitrate, or under ambient conditions.
(§2) The clinical isolates were inoculated in duplicate on agar plates overnight under anaerobic conditions at 36° C.±1.0° C. in a 96-well plate. Laboratory isolates of Burkholderia cepacia were also grown in duplicate overnight under aerobic conditions at 36° C.±1.0° C. in a 96-well plate. […] Ten dilutions for each test solution were examined: 50%, 25%, 12.5%, 6.25%, 3.13%, 1.57%, 0.78%, 0.39%, 0.2%, and 0.1%. The colony isolates were incubated for 12 hours or 24 hours at 36° C.±1.0° C. under anaerobic conditions in media comprising Luria Agar/Broth and nitrate with one of the three test solutions. […] MICs were determined via visual inspection and OD620.

Pa UAB-NM-5 = experiment: In vitro MIC against bacterial isolates; assay type: cell-based, Pseudomonas aeruginosa; conditions: Anaerobic (+nitrate); 12 hrs
Method: as §1, §2

Pa UAB-M-2 = experiment: In vitro MIC against bacterial isolates; assay type: cell-based, Pseudomonas aeruginosa; conditions: Anaerobic (+nitrate); 12 hrs
Method: as §1, §2

Pa UAB-NM-1 = experiment: In vitro MIC against bacterial isolates; assay type: cell-based, Pseudomonas aeruginosa; conditions: Anaerobic (+nitrate); 12 hrs
Method: as §1, §2

Pa UAB-NM-3 = experiment: In vitro MIC against bacterial isolates; assay type: cell-based, Pseudomonas aeruginosa; conditions: Anaerobic (+nitrate); 12 hrs
Method: as §1, §2

MRSA UAB-3 = experiment: In vitro MIC against bacterial isolates; assay type: cell-based, Methicillin-resistant Staphylococcus aureus; conditions: Anaerobic (+nitrate); 12 hrs
Method: as §1, §2

MRSA UAB-1 = experiment: In vitro MIC against bacterial isolates; assay type: cell-based, Methicillin-resistant Staphylococcus aureus; conditions: Anaerobic (+nitrate); 12 hrs
Method: as §1, §2

Row | Compound | % ASC [1] [%] | stability [2] | mucociliary transport rate [3] | MIC (Pa BAA-47 (PAO1)) [%] | MIC (Pa UAB-NM-5) [%] | MIC (Pa UAB-M-2) [%] | MIC (Pa UAB-NM-1) [%] | MIC (Pa UAB-NM-3) [%] | MIC (MRSA UAB-3) [%] | MIC (MRSA UAB-1) [%]
1 | O=C1O[C@H]([C@@H](O)CO)C(O)=C1O [Ascorbic Acid Only, ascorbic acid] | 77.88 | unstable |  |  |  |  |  |  |  | 
2 | N[C@@H](CCC(=O)N[C@@H](CS)C(=O)NCC(=O)O)C(=O)O [glutathione, Glutathione] |  |  | did not alter the mucociliary transport rate |  |  |  |  |  |  | 
3 | O=C([O-])O.[Na+] [HCO3, sodium bicarbonate] |  |  | did not alter the mucociliary transport rate | 12.5 | 12.5 | 12.5 | 12.5 | 12.5 | 25 | 25
